Converted amounts (≈) assume the structure as drawn.
Columns and labels:
[1] = tested on: adenosine deaminase; conditions: depends on adenosine deaminase; Good and de Miranda 1982; cited from earlier work
[2] = tested on: Beagle dogs; experiment: Toxicity study in Beagle dogs, per os; format: in vivo; conditions: 40 mg/kg/day, once daily 5 days
Description: Two male and 2 female Beagle dogs were given 6-deoxyacyclovir per os (once daily for 5 consecutive days) at a dose level of 40 mg/kg/day. There were no effects in 1 male and 1 female sacrificed at the end of the treatment period or in 1 male and 1 female sacrificed after a 2 week post-dose period.

[3] = tested on: xanthine oxidase/dehydrogenase or aldehyde oxidase
Text: (§1) It is thus possible to synthesize acyclovir in the body (i.e. in vivo) by administering 6-deoxyacyclovir to mammals including humans wherein the 6-deoxyacyclovir is acted upon by xanthine oxidase/dehydrogenase or aldehyde oxidase in the body and is thereby converted into acyclovir. […] Oxygen or other appropriate electron acceptors such as ferricyanide ion or methylene blue may serve as the oxidizing agent. Microorganisms which contain or produce xanthine oxidase/dehydrogenase may be used to effect the conversion of 6-deoxyacyclovir to acyclovir.

[4] = tested on: xanthine oxidase/dehydrogenase or aldehyde oxidase; experiment: Ex vivo (in vitro) enzymatic oxidation to acyclovir; format: biochemical
Text: as §1

[5] = tested on: xanthine oxidase from bovine milk; experiment: Enzyme studies: rate of oxidation by xanthine oxidase from bovine milk; format: biochemical
Text: The discovery that the 6-hydrogen purine of formula (I) above can be readily converted into its corresponding 6-hydroxy analogue is surprising since in previous studies with xanthine oxidase from bovine milk (H. Lettre et al. (1967) Biochem. Pharmacol., 16, 1747-1755; T. A. Krenitsky et al. (1972) Arch. Biophys., 150, 585-599) it was shown that 9-substitution obliterates or greatly diminishes the rate at which a variety of purines are oxidized.

[6] = tested on: bovine milk xanthine oxidase; experiment: Enzymatic conversion of 6-deoxyacyclovir to acyclovir by bovine milk xanthine oxidase (Example 2); format: biochemical; conditions: 24 hours, 43.6 μM substrate, pH 6.8, 25° C, atmospheric oxygen; UV monitoring
Description: A solution (20 μL) of a purified bovine milk xanthine oxidase containing 1.06 units (nmoles of xanthine oxidized per minute) of activity was added to 500 μL of a solution 43.6 μM with respect to 6-deoxyacyclovir, 0.05M with respect to potassium phosphate and 0.13 mM with respect to ethylenediaminetetraacetic acid at pH 6.8 and 25° C. The reaction mixture was equilibrated with atmospheric oxygen, and the oxygen served as the electron acceptor. […] The indentity of acyclovir as the product of the reaction was confirmed by its NMR spectrum.

[7] = Oral absorption and acyclovir blood/plasma levels in rats; format: in vivo
Description: The following experiments were carried out to determine the urinary excretion and plasma levels of acyclovir after oral dosing of rats with acyclovir, 6-deoxyacyclovir and the 6-amino analogue thereof i.e. 2,6-diamino-9-(2-hydroxyethoxymethyl)purine, hereinafter referred to as aminoacyclovir.
Long Evans male rats were dosed by intragastric needle with the drug and placed in metabolic cages which separated urine from feces. The collected urine and plasma samples were analyzed for acyclovir content by a radioimmunoassay (Quinn, R. P., et al., Anal. Biochem., 98, 319 (1979)).

[8] = Water solubility at 25° C; format: physicochemical
[9] = cited from earlier work
[10] = tested on: herpes viruses such as herpes simplex; conditions: cited from earlier work

For `Nc1nc(N)c2ncn(COCCO)c2n1` [aminoacyclovir, 2,6-diamino-9-(2-hydroxyethoxymethyl)purine], the “conversion to acyclovir in vivo” value [1] is listed as “depends on adenosine deaminase for conversion to acyclovir in vivo”.
With `Nc1ncc2ncn(COCCO)c2n1` [6-deoxyacyclovir, 2-Amino-9-(2-hydroxyethoxymethyl)purine] the “effects in toxicity study” value ([2]; after 2 week post-dose period) was “no effects”, the “effects in toxicity study” value ([2]; end of treatment) was “no effects” and the “conversion in vivo into acyclovir” value [3] was “readily converted in vivo”. For the same compound, the “ex vivo (in vitro) enzymatic oxidation to acyclovir” value [4] was “demonstrated that acyclovir may be synthesized”, the “rate of oxidation relative to the 9-unsubstituted purine” value [5] was “at a faster rate than the 9-unsubstituted purine” and the conversion to acyclovir [6] was “nearly complete conversion to acyclovir”. For the same compound, the “blood levels of acyclovir compared with oral acyclovir itself” value [7] was “higher blood levels of acyclovir are obtainable with 6-deoxyacyclovir than with acyclovir itself” and the “absorption from the gastro-intestinal tract and plasma levels of acyclovir” value ([7]; rats) was “efficient absorption from the gastro-intestinal tract and high plasma levels of the corresponding acyclovir”.
For `Nc1nc2c(ncn2COCCO)c(=O)[nH]1` [acyclovir, 9-(2-hydroxyethoxymethyl)guanine], the solubility in water [8] is listed as 1250 µg/mL (≈ 5.55 mM), the “absorption upon oral administration” value [9] is listed as “only moderately well absorbed upon oral administration” and the “activity against herpes viruses” value ([10]; herpes viruses such as herpes simplex) is listed as “particularly good activity against herpes viruses”. For the same compound, the “effectiveness upon topical or parenteral administration” value ([10]; topical or parenteral) was “especially effective upon topical or parenteral administration”.

From patent US4695570A, “Antiviral compound use” (Burroughs Wellcome Co., priority 1985, dated 1987)
